Assay results published in PMC11778240, “Synthesis and preclinical evaluation of tigilanol tiglate analogs as latency-reversing agents for the eradication of HIV” (Science Advances, 2025).

Legend:
NF-κB pathway = test: NF-κB activation assay, A549 cells with SEAP reporter; format: cell-based, Human; settings: for NF-κB activation (optical density, 630 nm): 24 hours after dosing; for NF-κB activation (optical density, 630 nm) / NF-κB activation in words: A549 cells; for NF-κB activation, times the basal level (DMSO control) / NF-κB activation in words: 24 hours; for NF-κB activation in words: 50 and/or 500 nM
Source text: As a high-throughput method of screening compounds for their ability to get into cells and activate immunological pathways related to HIV latency reversal ([46], [70]), we conducted an NF-κB reporter assay using A549 cells stably integrated with a secreted embryonic alkaline phosphatase reporter under the control of a promoter fused to five NF-κB binding sites (Fig. 7B) ([48], [70], [71]).
Human A549-Dual™ Cells supplied by InvivoGen (Cat. code a549d-nfis) and CHO-K1 cells were passaged when about 90% confluency was reached (approximately every three days). With each passage, media was aspirated from the cell layer, which was then washed with PBS. Following aspiration of the PBS, cells were detached from the culture flask with 0.25% GibcoTM Trypsin-EDTA and transferred to a 50 mL conical, which was volumed up with complete pre-warmed DMEM (4.5 g/L glucose, 10% FBS, and 1% Pen-Strep-Glutamine (100 X, 50 mg/mL)) or Ham's F-12K (Kaighn's) Medium supplemented with 10% FBS and 1% Pen-Strep (100 X, 50 mg/mL).
This conical was spun down at 1800 rpm for 3 minutes, the supernatant was removed, and cells were resuspended in their respective fresh, pre-warmed media. To count cells, 10 μL of resuspended cells were added to a sterile microcentrifuge tube and mixed with 10 μL of trypan blue after which 10 μL of the mixture was pipetted into a Countess chamber slide. A Countess™ 3 Automated Cell Counter was subsequently utilized to determine cell viability and concentration.
1 x 10^6 cells were seeded with each passage into a T75 culture flask, and cells were incubated at […]
Human A549 lung carcinoma cells (InvivoGen Cat. code a549d-nfis), stably integrated with a secreted embryonic alkaline phosphatase (SEAP) reporter, allow for the activity of the NF-κB pathway to be monitored. The SEAP reporter is under control of the interferon β (IFN-β) minimal promoter, which is fused to five NF-κB binding sites.
5 × 10^4 A549 cells were plated on Corning® 96 Well TC-Treated Microplates (CLS3595) in 180 μl of pre-warmed DMEM (4.5 g/L glucose, 10% heat-inactivated FBS (30 min at 56 ℃), and 1% Pen-Strep-Glutamine (100 X, 50 mg/mL)). Note that if cells were grown in media containing FBS that is not heat-inactivated, media will contain alkaline phosphatase. In this case, all supernatant must thoroughly be aspirated from the cell pellet obtained after centrifugation before resuspending cells in media containing heat inactivated FBS for plating. Following incubation at 37 °C in 5% CO2 for approximately 24 hours to allow for cell adherence onto the 96 well plate, 1.8 μL of each compound dissolved in DMSO was added in quadruplicate to their respective wells to achieve a final compound concentration of 1500 nM, 500 nM, or 50 nM. 1.8 μL of DMSO was added to wells as negative controls while wells treated with EBC-46 served as positive controls. 24 hours following compound addition, 180 μL of QUANTI-BlueTM Solution (InvivoGen Cat. code rep-qbs)- medium containing QB buffer and QB Reagent for detection and quantification of alkaline phosphatase- were added into wells on a new clear flat-bottom 96-well plate. 20 μL of supernatant of either SEAP-expressing cells incubated with compound or SEAP-expressing cells incubated with DMSO only were added to the wells in the new 96-well plate containing QUANTI-BlueTM Solution. Supernatant and QUANTI-BlueTM Solution were incubated at 37 °C in 5% CO2 for approximately an hour and a half. Following incubation, optical density (OD) at 630 nm was measured for each well using a BioTek Synergy H1 microplate reader under normal read speed and with a delay of 100 msec.

J-Lat clone 10.6 cells = test: J-Lat HIV latency reversal assay (GFP expression); format: cell-based, Human; settings: J-Lat 10.6, 48 hours; for HIV latency reversal in words: ascending concentrations
Source text: Having shown that our lead compounds bind cell-free PKC isoforms, enter cells, translocate PKC-GFP fusion proteins, and activate NF-κB transcription factors, we next set out to determine whether our analogs were capable of reversing HIV from latency. We performed in vitro assays using T lymphocyte J-Lat clone 10.6, which contains a latent near full-length replication-incompetent integrated HIV DNA genome ([72]). J-Lat 10.6 lacks two viral genes, env and nef, which encode for the envelope protein and an accessory protein, respectively, and thus cannot initiate a spreading HIV infection. The integrated HIV provirus also encodes a GFP reporter gene, allowing latency reversal to be measured by quantification of GFP expression (fig. S1). […] In this latency reversal assay, we quantified GFP expression 48 hours after compound addition and observed bryostatin 1 to be maximally effective at concentrations of 40 nM or higher with latency reversal in 12% of cells (Fig. 8). Given the efficacy of bryostatin 1 as an LRA ([73], [74]), EBC-46 and many of its analogs tested in this J-Lat assay induced latency reversal in >90% of cells. […] SUW427, an esterase-releasable prodrug of EBC-46, also performed similarly to EBC-46 with a maximum efficacy of latency reversal in >90% of cells at a dose of 250 nM. […] The gradual release of EBC-46 from its prodrug form provides an alternative mode of administration that avoids the bolus effect associated with rapid drug administration ([17]). […] This is consistent with its lack of activity in the NF-κB activation assay and its design as a negative control as it is structurally similar to EBC-46 but unable to bind to the C1 domain of PKC at the concentrations used in this assay as it lacks a complete pharmacophore.
HIV latency reversal in-vitro assay
Human T Lymphocyte J-Lat Full Length Cell Line 10.6 (cat #9849) was obtained through the NIH HIV Reagent Program, Division of AIDS, NIAID, NIH and was contributed to the NIH HIV Reagent Program by Dr. Eric Verdin (70). J-Lat 10.6 cells were plated at 5 × 10^5 cells in 180 μL of RF10 media consisting of RPMI media supplemented with 1% Penicillin/Streptomycin and 10% Fetal Bovine Serum (FBS) in 96 -well U -bottom plates. J -Lat 10.6 cells were then stimulated for 48 hr by adding 20 μL of newly designed and synthesized tigilanol tiglate analogs, PKC modulators (bryostatin 1) as our positive control or med ia only (mock) as our negative control. Our negative control was RF10 media as the tigilanol tiglate analogs were freshly diluted with RF10 prior to plating. The final volume was 200 μL per well. Experiments were performed in three independent biological replicates, each completed in technical duplicates (n = 6). After 48 hr stimulation, 96 - well U -bottom plates were centrifuged at 296 RCF for 7 minutes to pellet cells, which were resusp ended in 200 μL of freshly prepared 2% paraformaldehyde (PFA) in PBS. GF P expression was measured 24 -hours post -fixation using the FITC channel on a LSR Fortessa (BD Biosciences) flow cytometer. Data analysis was conducted with FlowJo software version 10.8.1.

| Compound | NF-κB activation (optical density, 630 nm) (NF-κB pathway; 50 nM) | NF-κB activation, times the basal level (DMSO control) (NF-κB pathway; 500 nM) | NF-κB activation (optical density, 630 nm) (NF-κB pathway; 500 nM) | NF-κB activation in words (NF-κB pathway) | maximal latency reversal, % of cells (J-Lat clone 10.6 cells; 250 nM) | NF-κB activation, times the basal level (DMSO control) (NF-κB pathway; 50 nM) | HIV latency reversal in words (J-Lat clone 10.6 cells) |
| --- | --- | --- | --- | --- | --- | --- | --- |
| C/C=C(\C)C(=O)O[C@@H]1[C@@H](C)[C@@]2(O)[C@H]([C@@H]3C(C)(C)[C@]13OC(=O)[C@@H](C)CC)[C@@H]1O[C@]1(CO)[C@@H](O)[C@]1(O)C(=O)C(C)=C[C@H]12 [EBC-46, Tigilanol tiglate] | 0.35 optical density, 630 nm | ~ 2.5 times | 0.69 optical density, 630 nm | minimal activation of NF-κB relative to the dimethyl sulfoxide (DMSO) control |  |  |  |
| C/C=C(\C)C(=O)O[C@@H]1[C@@H](C)[C@]2(O)[C@@H]3C=C(C)C(=O)[C@@]3(O)[C@H](O)C(CO)=C[C@H]2[C@@H]2C(C)(C)[C@]12OC(=O)[C@@H](C)CC [SUW400] | 0.41 optical density, 630 nm |  | 0.67 optical density, 630 nm | comparable activity to EBC-46 at 50 and 500 nM | > 90 % of cells |  |  |
| C/C=C(\C)C(=O)O[C@@H]1[C@@H](C)[C@@]2(O)[C@@H](C=C(CO)C[C@]3(O)C(=O)C(C)=C[C@@H]23)[C@@H]2C(C)(C)[C@]12OC(=O)[C@@H](C)CC [SUW402] | 0.71 optical density, 630 nm |  | 0.63 optical density, 630 nm | strong activation of NF-κB at higher concentrations but with an inverse dose response |  | approximately three |  |
| CC=C(C)C(=O)OC1C(C)C2(O)C(C3OC3(CO)CC3(O)C(=O)C(C)=CC32)C2C(C)(C)C12OC(=O)C(C)CC (centres unmarked) [SUW403] | 0.39 optical density, 630 nm |  | 0.67 optical density, 630 nm | comparable activity to EBC-46 at 50 and 500 nM |  |  | required a higher dose than EBC-46 before we detected reversal activity |
| C/C=C(\C)C(=O)O[C@@H]1[C@@H](C)[C@@]2(O)[C@H]([C@@H]3C(C)(C)[C@]13OC(=O)C1CCC1)[C@@H]1O[C@]1(CO)[C@@H](O)[C@]1(O)C(=O)C(C)=C[C@H]12 [SUW406] | 0.38 optical density, 630 nm |  | 0.57 optical density, 630 nm | comparable activity to EBC-46 at 50 and 500 nM |  |  | required a higher dose than EBC-46 before we detected reversal activity |
| C/C=C(\C)C(=O)O[C@@H]1[C@@H](C)[C@@]2(O)[C@H]([C@@H]3C(C)(C)[C@]13OC(=O)[C@H](C)CC)[C@@H]1O[C@]1(CO)[C@@H](O)[C@]1(O)C(=O)C(C)=C[C@H]12 [SUW407] | 0.42 optical density, 630 nm |  | 0.60 optical density, 630 nm | comparable activity to EBC-46 at 50 and 500 nM |  |  | required a higher dose than EBC-46 before we detected reversal activity |
| CC[C@H](C)C(=O)O[C@@]12[C@H](OC(=O)C3(C)CC3)[C@@H](C)[C@@]3(O)[C@H]([C@@H]1C2(C)C)[C@@H]1O[C@]1(CO)[C@@H](O)[C@]1(O)C(=O)C(C)=C[C@H]13 [SUW413] | 0.40 optical density, 630 nm |  | 0.70 optical density, 630 nm | comparable activity to EBC-46 at 50 and 500 nM |  |  | required a higher dose than EBC-46 before we detected reversal activity |
| C/C=C(\C)C(=O)O[C@@H]1[C@@H](C)[C@@]2(O)[C@H]([C@@H]3C(C)(C)[C@]13OC(=O)N1CCCC1)[C@@H]1O[C@]1(CO)[C@@H](O)[C@]1(O)C(=O)C(C)=C[C@H]12 [SUW421] | 0.30 optical density, 630 nm |  | 0.31 optical density, 630 nm | minimal activity in this assay at 50 and 500 nM |  |  |  |
| C/C=C(\C)C(=O)O[C@@H]1[C@@H](C)[C@]2(O)[C@@H]3C=C(C)[C@H](OC(=O)c4ccccc4)[C@@]3(O)[C@H](O)C(CO)=C[C@H]2[C@@H]2C(C)(C)[C@]12OC(=O)[C@@H](C)CC [SUW422] | 0.26 optical density, 630 nm |  | 0.36 optical density, 630 nm | minimal NF-κB activation at both 50 and 500 nM |  |  | required a higher dose than EBC-46 before we detected reversal activity |
| CC[C@H](C)C(=O)O[C@@]12[C@H](OC(=O)N3CCCC3)[C@@H](C)[C@@]3(O)[C@H]([C@@H]1C2(C)C)[C@@H]1O[C@]1(CO)[C@@H](O)[C@]1(O)C(=O)C(C)=C[C@H]13 [SUW424] | 0.34 optical density, 630 nm |  | 0.34 optical density, 630 nm | minimal activity in this assay at 50 and 500 nM |  |  |  |
